Structures can show the parent of a compound that is named as a salt.
system: γ-secretase; production of amyloid beta protein Aβ(1-42); experiment: Cell-Based γ-Secretase Assay with ELISA Readout; conditions: human WT-APP overexpressing CHO cells; footnote 8: single determination; read-out: Aβ 42B IC50 (nM) (Geometric Mean of 2-8 Determinations)
Procedure: The ability of compounds to modulate production of amyloid beta protein A6(1-42) was determined using human WT-APP overexpressing CHO cells. Cells were plated at 22,000 cells/100 μL well in 96 well tissue culture treated, clear plates (Falcon) in DMEM/F12 based medium and incubated for 24 hours at 37° C. Compounds for testing were diluted in 100% DMSO to achieve an eleven points, half log, dose response for IC50 determinations. Compounds were added in fresh medium to achieve 1% final DMSO. Appropriate vehicle and inhibitor controls were added to obtain maximum and minimum inhibition values for the assay before the plates were incubated for about 24 hours at 37° C.
Coating of ELISA assay plates was initiated by addition of 50 μL/well of an in-house Aβ(1-42) specific antibody at (4 μg/mL) in 0.1 M NaHCO3 (pH 9.0) into black 384-well Maxisorp® plates (Nunc) and incubated overnight at 4° C. The capture antibody was then aspirated from the ELISA assay plates and 100 μL/well of Blocking Buffer (Dulbecco's PBS, 1.5% BSA (Sigma A7030)) added. Ambient temperature incubation was allowed to proceed for a minimum of two hours before washing 2×100 μL with Wash Buffer (Dulbecco's PBS, 0.05% Tween 20). Assay Buffer (Dulbecco's PBS, 1.0% BSA (Sigma A7030), 0.05% Tween 20) 20 μL/well was then added.
After incubation overnight at 37° C., 5% CO2, 40 μL (in duplicate) of experimental conditioned media were transferred into wells of the blocked ELISA plates containing the capture antibody, followed by overnight incubation at 4° C.
After overnight incubation of the ELISA assay plates at 4° C., unbound Aβ peptides were removed thorough (4×100 μL) washes with Wash Buffer. Europium (Eu) labeled (custom labeled, Perkin Elmer) Aβ(1-16) 6e10 Monoclonal Antibody (Covance #SIG-39320 was added, (50 μL/well Eu-6e10 @ 1:5000, 20 uM EDTA) in Assay Buffer. Incubation at ambient temperature for a minimum of 2 hours was followed by (4×100 μL) washes with Wash Buffer, before 50 μL/well of Delfia Enhancement Solution (PerkinElmer) was added. Following a one hour ambient temperature incubation, the plates were read on an EnVision plate reader (PerkinElmer) using standard DELFIA TRF settings. Data analysis including inhibitory IC50 determination was performed using nonlinear regression fit analysis (in-house software) and the appropriate plate mean values for the maximum and minimum inhibition controls.

**Q.** For `CC1(CN(CC2CCCC2)[C@@H]2CC[C@@H](CC(=O)O)C[C@H]2c2ccc(C(F)(F)F)cc2)CCCC1` [Example 21, {(1R,3S,4R)-4-{(cyclopentyl-methyl)[(1-methylcyclo-pentyl)methyl]amino}-3-[4-(trifluoromethyl)phenyl]cyclohexyl} acetic acid], which IC50 is on record?
**A.** 435 nM

**Q.** Which IC50 does the source give for `O=C(O)C[C@@H]1CC[C@@H](N(CC2CCCCC2)CC2CCCCC2)[C@H](c2ccc(C(F)(F)F)cc2)C1` [Example 15, {(1R,3S,4R)-4-[bis(cyclohexylmethyl)amino]-3-[4-(trifluoro-methyl)phenyl]cyclohexyl}acetic acid] here?
**A.** 107 nM

**Q.** `O=C(O)C[C@@H]1CC[C@@H](N2CC3(CCCC3)CC3(CCCC3)C2)[C@H](c2ccc(C(F)(F)F)cc2)C1` [Example 29, {(1R,3S,4R)-4-(13-azadispiro [4.1.4.3]tetradec-13-yl)-3-[4-(trifluoromethyl)phenyl]cyclohexyl} acetic acid] was tested. Which IC50 did it give?
**A.** 193 nM

**Q.** How did the IC50 turn out when `CC(C)CCN(CC1CCCCC1)[C@@H]1CC[C@@H](CC(=O)O)C[C@H]1c1ccc(C(F)(F)F)cc1` [Example 13, {(1R,3S,4R)-4-[(cyclohexylmethyl) (3-methylbutyl)amino]-3-[4-(trifluoromethyl)phenyl]cyclohexyl} acetic acid] was run?
**A.** 236 nM

same assay, conditions: human WT-APP overexpressing CHO cells; geometric mean of 2-4 determinations unless otherwise indicated (footnote 10: 6-8; footnote 14: single determination); read-out: Aβ 42B IC50

**Q.** `CC(C)(C)CN(CC1CCCC1)[C@@H]1CC[C@@H](CC(=O)O)C[C@H]1c1ccc(C(F)(F)F)cc1` [Example 36, {(1R,3S,4R)-4-[(cyclopentylmethyl)(2,2-dimethylpropyl)amino]-3-[4-(trifluoromethyl)phenyl]cyclohexyl}acetic acid, ammonium salt] was tested. Which IC50 did it give?
**A.** 349 nM

**Q.** With `CC(C)CCN(C1CCOCC1)[C@@H]1CC[C@@H](CC(=O)O)C[C@H]1c1ccc(C(F)(F)F)cc1` [Example 30, {(1R,3S,4R)-4-[(3-methylbutyl)(tetrahydro-2H-pyran-4-yl)amino]-3-[4-(trifluoromethyl)phenyl]cyclohexyl}acetic acid, ammonium salt] as the compound, how does the IC50 read?
**A.** 7310 nM

**Q.** Which IC50 does the source give for `CC(C)CN(CC1=CCC2CC1C2(C)C)[C@@H]1CC[C@@H](CC(=O)O)C[C@H]1c1ccc(C(F)(F)F)cc1` (stereo partly drawn) [Example 63, {(1R,3S,4R)-4-{[(6,6-dimethylbicyclo[3.1.1]hept-2-en-2-yl)methyl](isobutyl)amino}-3-[4-(trifluoromethyl)phenyl]cyclohexyl}acetic acid, trifluoroacetate salt] here?
**A.** 336 nM

**Q.** Which IC50 does the source give for `CCC(CC)CN(CC1CCCC1)[C@@H]1CC[C@@H](CC(=O)O)C[C@H]1c1ccc(Cl)cc1` [Example 49, {(1R,3S,4R)-3-(4-chlorophenyl)-4-[(cyclopentylmethyl)(2-ethylbutyl)amino]cyclohexyl} acetic acid, ammonium salt] here?
**A.** 477 nM

**Q.** For `CCC(CC)CN(CC1CCCC1)[C@@H]1CC[C@@H](CC(=O)O)C[C@H]1c1ccc(C(F)(F)F)cc1` [Example 43, {(1R,3S,4R)-4-[(cyclopentylmethyl)(2-ethylbutyl)amino]-3-[4-(trifluoromethyl)phenyl]cyclohexyl}acetic acid, trifluoroacetate salt], which IC50 is on record?
**A.** 162 nM

**Q.** For `O=C(O)C[C@@H]1CC[C@@H](N(CC2CCCC2)CC2CCCC2)[C@H](c2ccc(Cl)c(F)c2)O1` [Example 54, [(2S,5R,6S)-5-[bis(cyclopentylmethyl)amino]-6-(4-chloro-3-fluorophenyl)tetrahydro-2H-pyran-2-yl]acetic acid, ammonium acid], which IC50 is on record?
**A.** 1050 nM

**Q.** With `CC(C)CN(CC1CCCC1)[C@@H]1CC[C@@H](CC(=O)O)C[C@H]1c1ccc(C(F)(F)F)cc1` [Example 44, {(1R,3S,4R)-4-[(cyclopentylmethyl)(isobutyl)amino]-3-[4-(trifluoromethyl)phenyl]cyclohexyl}acetic acid, trifluoroacetic salt] as the compound, how does the IC50 read?
**A.** 318 nM

**Q.** For `Cc1nc(CN(CC2CCCC2)[C@@H]2CC[C@@H](CC(=O)O)C[C@H]2c2ccc(C(F)(F)F)cc2)co1` [Example 53, {(1R,3S,4R)-4-{(cyclopentylmethyl)[(2-methyl-1,3-oxazol-4-yl)methyl]amino}-3-[4-(trifluoromethyl)phenyl]cyclohexyl}acetic acid, ammonium salt], which IC50 is on record?
**A.** 959 nM
